Molecular target: Lysine-specific histone demethylase 1A (Homo sapiens, UniProt O60341)
Test: Biochemical Analysis of LSD1 Histone Demethylase Inhibitor
Method: The biochemical inhibition activity of the synthesized compounds on LSD1 was measured. The activity measurement was performed using LSD1 fluorescence analysis kit (available from BPS Bioscience Co., Ltd., Catalog No: 50106). This analysis kit is designed to measure activity of LSD1 enzyme. H2O2 generated upon demethylation of Lys4 moiety of histone H3 by LSD1 is reacted with HRP/Amplex Red reagent to form fluorescent Resorufin, which is measured by this kit, thereby confirming demethylation.

CCN(CC)c1ccc(-n2c(-c3ccc(C#N)c(F)c3)nc3c(N4CCC[C@@H](N)C4)ccnc32)cc1 [US12479845, Example 21]
IC50: 27 nM

Source: BindingDB's records for patent US12479845 (Hanmi Pharm. Co., 2025)
